# Columns and labels:
# Format in all cases: cell-based, human
# [1] = test system: bioprinted full thickness skin tissue; experiment: Lactate dehydrogenase (LDH) activity in media of bioprinted skin tissue, skin irritation test
# Text: Bio-ink was generated by a cellular mixture of 100% primary adult human dermal fibroblasts (HDFa) in 8% gelatin (NOVOGEL 2.0) at a concentration of 100 million cells per milliliter. The cell: gelatin ratio was altered to reduce the cellular density of the dermal sheet to better mimic dermal tissue in native skin. Three-dimensional bio-ink constructs were printed by continuous deposition using the NOVOGEN BIOPRINTER platform in a 4 mm×4 mm×0.5 mm base to create a dermal structure resembling a sheet. […] The transwell printing surface contained a polytetrafluoroethylene (PTFE) membrane coated with equimolar mixture of types I and III collagen (bovine) with pores 3 μm in size. Epidermal cell paste containing a mixture of 100% primary neonatal human epidermal keratinocytes (HEKn) was then printed on top of the dermal bio-ink. Cell paste was measured post print at 87.1% viable by trypan exclusion assay. Cell numbers in the deposited epidermal layer was estimated at 60,000 cells by cell counting on a Cell-O-Meter. Immediately following the print, constructs were placed at 4° C. for 10 minutes. Cold media was then added to the outer well of the transwell in a volume of 3 ml. The media used for subsequent growth and maintenance of the skin tissue was a 50:50 ratio of HDFa: HEKn media. The initial volume added was sufficient to submerge the structure. All subsequent media changes used warmed media (37° C.) added to the outer well of the transwell and not to the inner basket. Media was changed 48 hours later and reduced to a volume of 1.5 ml per well to bring the structure to an air-liquid interface (ALI). Media and subsequently changed 48 hours after that (day 4) at a volume of 1.5 ml. […] IL-1α production (R&D Systems) was analyzed in a colorimetric assays per manufacturer's protocol. Media was analyzed for lactate dehydrogenase as a marker for cytotoxicity. IL-1α production was assessed as a complementary endpoint to classic cytotoxicity testing to improve predictability of irritants. […] Viability was measured as fluorescence in the media by conversion of resazurin to resorufin. […]
# [2] = test system: bioprinted full thickness skin tissue; experiment: IL-1α production in media of bioprinted skin tissue (colorimetric assay), skin irritation test
# Text: Bio-ink was generated by a cellular mixture of 100% primary adult human dermal fibroblasts (HDFa) in 8% gelatin (NOVOGEL 2.0) at a concentration of 100 million cells per milliliter. The cell: gelatin ratio was altered to reduce the cellular density of the dermal sheet to better mimic dermal tissue in native skin. Three-dimensional bio-ink constructs were printed by continuous deposition using the NOVOGEN BIOPRINTER platform in a 4 mm×4 mm×0.5 mm base to create a dermal structure resembling a sheet. […] The transwell printing surface contained a polytetrafluoroethylene (PTFE) membrane coated with equimolar mixture of types I and III collagen (bovine) with pores 3 μm in size. Epidermal cell paste containing a mixture of 100% primary neonatal human epidermal keratinocytes (HEKn) was then printed on top of the dermal bio-ink. Cell paste was measured post print at 87.1% viable by trypan exclusion assay. Cell numbers in the deposited epidermal layer was estimated at 60,000 cells by cell counting on a Cell-O-Meter. Immediately following the print, constructs were placed at 4° C. for 10 minutes. Cold media was then added to the outer well of the transwell in a volume of 3 ml. The media used for subsequent growth and maintenance of the skin tissue was a 50:50 ratio of HDFa: HEKn media. The initial volume added was sufficient to submerge the structure. All subsequent media changes used warmed media (37° C.) added to the outer well of the transwell and not to the inner basket. Media was changed 48 hours later and reduced to a volume of 1.5 ml per well to bring the structure to an air-liquid interface (ALI). Media and subsequently changed 48 hours after that (day 4) at a volume of 1.5 ml. On day 5, media was changed and further reduced to 1 ml per well and subsequently changed daily. On day 10, skin tissues were subject to a skin irritation test method using 1% TRITON X-100. 1% TRITON X-100 is a known irritant and reference chemical currently used in other 3D skin models. Methods were based on OECD guidelines 439 and 431 for applying human skin models to in vitro skin irritation or corrosion, respectively. On day 10, conditioned media was saved (designated time=0) and 1 ml of fresh media was added to the outer well of the transwell. The printed skin tissue was then treated with 20 μl of PBS as a negative control or with 20 μl of 1% TRITON X-100 as a positive control and known irritant. Test substances were pipetted manually to the apical surface of the tissue. TRITON X-100 was diluted to a 1% aqueous solution in deionized water and sterile filtered through a 20 micron filter before use. […] Media was saved (designated time=1 hour). Samples were then washed extensively by PBS rinsing. […] The media was then changed at 24 hours and at 48 hours post treatment. Total media collected included time points=−48, 0, 1, 24, and 48 hours. IL-1α production (R&D Systems) was analyzed in a colorimetric assays per manufacturer's protocol. Media was analyzed for lactate dehydrogenase as a marker for cytotoxicity. IL-1α production was assessed as a complementary endpoint to classic cytotoxicity testing to improve predictability of irritants. Keratinocytes normally produce and release inflammatory cytokine IL-1α in response to chemical or physical stress. […] Viability was measured as fluorescence in the media by conversion of resazurin to resorufin. […]
# [3] = test system: bioprinted full thickness skin tissue; experiment: Viability of bioprinted skin tissue by alamar blue assay, skin irritation test
# Text: Bio-ink was generated by a cellular mixture of 100% primary adult human dermal fibroblasts (HDFa) in 8% gelatin (NOVOGEL 2.0) at a concentration of 100 million cells per milliliter. The cell: gelatin ratio was altered to reduce the cellular density of the dermal sheet to better mimic dermal tissue in native skin. Three-dimensional bio-ink constructs were printed by continuous deposition using the NOVOGEN BIOPRINTER platform in a 4 mm×4 mm×0.5 mm base to create a dermal structure resembling a sheet. […] The transwell printing surface contained a polytetrafluoroethylene (PTFE) membrane coated with equimolar mixture of types I and III collagen (bovine) with pores 3 μm in size. Epidermal cell paste containing a mixture of 100% primary neonatal human epidermal keratinocytes (HEKn) was then printed on top of the dermal bio-ink. Cell paste was measured post print at 87.1% viable by trypan exclusion assay. Cell numbers in the deposited epidermal layer was estimated at 60,000 cells by cell counting on a Cell-O-Meter. Immediately following the print, constructs were placed at 4° C. for 10 minutes. Cold media was then added to the outer well of the transwell in a volume of 3 ml. The media used for subsequent growth and maintenance of the skin tissue was a 50:50 ratio of HDFa: HEKn media. The initial volume added was sufficient to submerge the structure. All subsequent media changes used warmed media (37° C.) added to the outer well of the transwell and not to the inner basket. Media was changed 48 hours later and reduced to a volume of 1.5 ml per well to bring the structure to an air-liquid interface (ALI). Media and subsequently changed 48 hours after that (day 4) at a volume of 1.5 ml. On day 5, media was changed and further reduced to 1 ml per well and subsequently changed daily. On day 10, skin tissues were subject to a skin irritation test method using 1% TRITON X-100. 1% TRITON X-100 is a known irritant and reference chemical currently used in other 3D skin models. Methods were based on OECD guidelines 439 and 431 for applying human skin models to in vitro skin irritation or corrosion, respectively. On day 10, conditioned media was saved (designated time=0) and 1 ml of fresh media was added to the outer well of the transwell. The printed skin tissue was then treated with 20 μl of PBS as a negative control or with 20 μl of 1% TRITON X-100 as a positive control and known irritant. […] IL-1α production (R&D Systems) was analyzed in a colorimetric assays per manufacturer's protocol. Media was analyzed for lactate dehydrogenase as a marker for cytotoxicity. IL-1α production was assessed as a complementary endpoint to classic cytotoxicity testing to improve predictability of irritants. […] Viability was measured as fluorescence in the media by conversion of resazurin to resorufin. […]
# [4] = test system: bioprinted full thickness skin tissue; experiment: Histological analysis of bioprinted skin tissue after irritant treatment (H&E, CK5/IVL, CK10, collagen 3, PCNA, TUNEL); conditions: 1% TRITON X-100, 1 hour exposure
# Text: Bio-ink was generated by a cellular mixture of 100% primary adult human dermal fibroblasts (HDFa) in 8% gelatin (NOVOGEL 2.0) at a concentration of 100 million cells per milliliter. The cell: gelatin ratio was altered to reduce the cellular density of the dermal sheet to better mimic dermal tissue in native skin. Three-dimensional bio-ink constructs were printed by continuous deposition using the NOVOGEN BIOPRINTER platform in a 4 mm×4 mm×0.5 mm base to create a dermal structure resembling a sheet. One tissue construct was printed per transwell in a 6-well plate. The transwell printing surface contained a polytetrafluoroethylene (PTFE) membrane coated with equimolar mixture of types I and III collagen (bovine) with pores 3 μm in size. Epidermal cell paste containing a mixture of 100% primary neonatal human epidermal keratinocytes (HEKn) was then printed on top of the dermal bio-ink. Cell paste was measured post print at 87.1% viable by trypan exclusion assay. Cell numbers in the deposited epidermal layer was estimated at 60,000 cells by cell counting on a Cell-O-Meter. Immediately following the print, constructs were placed at 4° C. for 10 minutes. Cold media was then added to the outer well of the transwell in a volume of 3 ml. The media used for subsequent growth and maintenance of the skin tissue was a 50:50 ratio of HDFa: HEKn media. The initial volume added was sufficient to submerge the structure. All subsequent media changes used warmed media (37° C.) added to the outer well of the transwell and not to the inner basket. Media was changed 48 hours later and reduced to a volume of 1.5 ml per well to bring the structure to an air-liquid interface (ALI). Media and subsequently changed 48 hours after that (day 4) at a volume of 1.5 ml. On day 5, media was changed and further reduced to 1 ml per well and subsequently changed daily. On day 10, skin tissues were subject to a skin irritation test method using 1% TRITON X-100. 1% TRITON X-100 is a known irritant and reference chemical currently used in other 3D skin models. Methods were based on OECD guidelines 439 and 431 for applying human skin models to in vitro skin irritation or corrosion, respectively. On day 10, conditioned media was saved (designated time=0) and 1 ml of fresh media was added to the outer well of the transwell. The printed skin tissue was then treated with 20 μl of PBS as a negative control or with 20 μl of 1% TRITON X-100 as a positive control and known irritant. Test substances were pipetted manually to the apical surface of the tissue. TRITON X-100 was diluted to a 1% aqueous solution in deionized water and sterile filtered through a 20 micron filter before use. Samples were incubated for 30 minutes at 37° C. followed by 30 minutes at room temperature for a total of 60 minutes. Media was saved (designated time=1 hour). Samples were then washed extensively by PBS rinsing. Transwells were then placed in a new 6-well plate with fresh media (1 ml) added to the outer well then placed back into 37° C. overnight. The media was then changed at 24 hours and at 48 hours post treatment. Total media collected included time points=−48, 0, 1, 24, and 48 hours. IL-1α production (R&D Systems) was analyzed in a colorimetric assays per manufacturer's protocol. Media was analyzed for lactate dehydrogenase as a marker for cytotoxicity. IL-1α production was assessed as a complementary endpoint to classic cytotoxicity testing to improve predictability of irritants. Keratinocytes normally produce and release inflammatory cytokine IL-1α in response to chemical or physical stress. At 48 hours post treatment (day 12), tissues were either lysed for RNA extraction and subsequent qPCR analysis, or tested for viability by alamar blue assay then rinsed in PBS and fixed with 2% PFA for histological analysis. Alamar blue (Life Technologies) was added per manufacturer's instructions to media and incubated with tissue constructs (1 ml) at 37° C. for 3 hours. […]
# [5] = 1% TRITON X-100, 1 hour exposure, 48 hours post treatment
substance,measurement,setting,value
TRITON X-100,induction in LDH activity compared to PBS control,"[1]; 1% TRITON X-100, 1 hour exposure, 6-well format, at 1 hour, 24 hours and 48 hours post treatment",roughly 2 fold
same,LDH activity higher than PBS,"[1]; 15 minute exposure, 5% SDS or 1% TRITON X-100, 24 well plate format, 42 hours post exposure",about 1.4 fold
same,IL-1α levels,"[2]; 1% TRITON X-100, 1 hour exposure, 24 hours post treatment",remained high
same,IL-1α levels,[2]; [5],returned to baseline
same,IL-1α activity in comparison to PBS control,"[2]; 1% TRITON X-100, 1 hour exposure, greatest difference 1 hour post treatment",increased
same,IL-1α production,"[2]; 15 minute exposure, 5% SDS or 1% TRITON X-100, 24 well plate format",induced
same,reduction in viability as compared to the PBS control (alamar blue),[3]; [5],80%
same,viability compared to the PBS control (alamar blue assay),"[3]; 15 minute exposure, 5% SDS or 1% TRITON X-100, 24 well plate format, 42 hours post treatment",68.75%
same,irritancy to bioprinted skin suggested by histology,[4],irritant

# From patent US11529436B2, “Engineered three-dimensional skin tissues, arrays thereof, and methods of making the same” (Organovo, Inc., priority 2014, dated 2022)
